Measured values reported in ChEMBL document CHEMBL4665629, “An optimised series of substituted N-phenylpyrrolamides as DNA gyrase B inhibitors” (Eur J Med Chem, 2019).
Values after ≈ are worked out from the molar mass of the structure shown.

Key:
Klebsiella aerogenes = assay: Antibacterial activity against Enterobacter aerogenes ATCC 13408 assessed as bacterial growth inhibition at 50 uM incubated for 24 hrs by CLSI protocol based broth microdilution assay relative to control; type: functional
Staphylococcus aureus = assay: Antibacterial activity against Staphylococcus aureus ATCC 29213 assessed as bacterial growth inhibition at 50 uM incubated for 24 hrs by CLSI protocol based broth microdilution assay relative to control; type: functional
Escherichia coli [1] = assay: Antibacterial activity against efflux pump d effect ive Escherichia coli JW5503 harbouring tolC mutant assessed as bacterial growth inhibition at 50 uM incubated for 24 hrs by CLSI protocol based broth microdilution assay relative to control; type: functional
Enterococcus faecium [2] = assay: Antibacterial activity against Enterococcus faecium ATCC 35667 assessed as bacterial growth inhibition at 50 uM incubated for 24 hrs by CLSI protocol based broth microdilution assay relative to control; type: functional
Klebsiella pneumoniae = assay: Antibacterial activity against Klebsiella pneumoniae ATCC 700603 assessed as bacterial growth inhibition at 50 uM incubated for 24 hrs by CLSI protocol based broth microdilution assay relative to control; type: functional
Escherichia coli [3] = assay: Antibacterial activity against efflux pump d effect ive Escherichia coli JW5503 harbouring tolC mutant assessed as minimum inhibitory concentration required for >=90% inhibition of bacterial growth by CLSI protocol based broth microdilution assay; type: functional
DNA gyrase [4] = target: DNA gyrase (Escherichia coli, UniProt P0AES4+P0AES6); assay: Inhibition of Escherichia coli DNA gyrase using biotinylated oligonucleotide as substrate incubated for 30 mins in presence of ATP by fluorescence-based microplate reader assay; type: protein-complex assay
Escherichia coli [5] = assay: Antibacterial activity against outer membrane impaired Escherichia coli JD17464 harboring lpxC mutant assessed as bacterial growth inhibition at 50 uM incubated for 24 hrs by CLSI protocol based broth microdilution assay relative to control; type: functional
Acinetobacter baumannii = assay: Antibacterial activity against Acinetobacter baumannii ATCC 19606 assessed as bacterial growth inhibition at 50 uM incubated for 24 hrs by CLSI protocol based broth microdilution assay relative to control; type: functional; conditions: ATCC 19606 = CIP 70.34 = JCM 6841
Escherichia coli [6] = assay: Antibacterial activity against Escherichia coli ATCC 25922 assessed as bacterial growth inhibition at 50 uM incubated for 24 hrs by CLSI protocol based broth microdilution assay relative to control; type: functional
Enterococcus faecalis [7] = assay: Antibacterial activity against Enterococcus faecalis ATCC 29212 assessed as bacterial growth inhibition at 50 uM incubated for 24 hrs by CLSI protocol based broth microdilution assay relative to control; type: functional
Pseudomonas aeruginosa = assay: Antibacterial activity against Pseudomonas aeruginosa ATCC 27853 assessed as bacterial growth inhibition at 50 uM incubated for 24 hrs by CLSI protocol based broth microdilution assay relative to control; type: functional
[8] = Cytotoxicity against HUVEC assessed as reduction in cell proliferation at 50 uM after 72 hrs by MTS assay relative to control; type: cell-based; conditions: human, HUVEC cells, read-out: Activity
[9] = Cytotoxicity against human HepG2 cells assessed as reduction in cell proliferation at 50 uM after 72 hrs by MTS assay relative to control; type: cell-based; conditions: read-out: Activity
[10] = target: DNA gyrase (Escherichia coli) (UniProt P0AES6+P0AES4); assay: Inhibition of Escherichia coli DNA gyrase assessed as residual activity at 1 uM using biotinylated oligonucleotide as substrate incubated for 30 mins in presence of ATP by fluorescence-based microplate reader assay relative to control; type: protein-complex assay
Enterococcus faecalis [11] = assay: Antibacterial activity against Enterococcus faecalis ATCC 29212 assessed as minimum inhibitory concentration required for >=90% inhibition of bacterial growth by CLSI protocol based broth microdilution assay; type: functional
[12] = Inhibition of Escherichia coli DNA topoisomerase 4 using biotinylated oligonucleotide as substrate incubated for 30 mins in presence of ATP by fluorescence-based microplate reader assay
[13] = target: DNA gyrase (Staphylococcus aureus) (UniProt P0A0K8+P20831); assay: Inhibition of Staphylococcus aureus DNA gyrase assessed as residual activity at 1 uM using biotinylated oligonucleotide as substrate incubated for 30 mins in presence of ATP by fluorescence-based microplate reader assay relative to control; type: protein-complex assay
Topoisomerase IV = Topoisomerase IV (Staphylococcus aureus, UniProt P0C1S7+P0C1U9); assay: Inhibition of Staphylococcus aureus DNA topoisomerase 4 using biotinylated oligonucleotide as substrate incubated for 30 mins in presence of ATP by fluorescence-based microplate reader assay; type: protein-complex assay
DNA gyrase [14] = target: DNA gyrase (Staphylococcus aureus, UniProt P0A0K8+P20831); assay: Inhibition of Staphylococcus aureus DNA gyrase using biotinylated oligonucleotide as substrate incubated for 30 mins in presence of ATP by fluorescence-based microplate reader assay; type: protein-complex assay
[15] = target: Topoisomerase IV (Staphylococcus aureus) (UniProt P0C1U9+P0C1S7); assay: Inhibition of Staphylococcus aureus DNA topoisomerase 4 assessed as residual activity at 1 uM using biotinylated oligonucleotide as substrate incubated for 30 mins in presence of ATP by fluorescence-based microplate reader assay relative to control; type: protein-complex assay
[16] = Inhibition of Escherichia coli DNA topoisomerase 4 assessed as residual activity at 1 uM using biotinylated oligonucleotide as substrate incubated for 30 mins in presence of ATP by fluorescence-based microplate reader assay relative to control
Enterococcus faecium [17] = assay: Antibacterial activity against Enterococcus faecium ATCC 35667 assessed as minimum inhibitory concentration required for >=90% inhibition of bacterial growth by CLSI protocol based broth microdilution assay; type: functional

Topoisomerase IV, sequence (P0C1U9 whole entry): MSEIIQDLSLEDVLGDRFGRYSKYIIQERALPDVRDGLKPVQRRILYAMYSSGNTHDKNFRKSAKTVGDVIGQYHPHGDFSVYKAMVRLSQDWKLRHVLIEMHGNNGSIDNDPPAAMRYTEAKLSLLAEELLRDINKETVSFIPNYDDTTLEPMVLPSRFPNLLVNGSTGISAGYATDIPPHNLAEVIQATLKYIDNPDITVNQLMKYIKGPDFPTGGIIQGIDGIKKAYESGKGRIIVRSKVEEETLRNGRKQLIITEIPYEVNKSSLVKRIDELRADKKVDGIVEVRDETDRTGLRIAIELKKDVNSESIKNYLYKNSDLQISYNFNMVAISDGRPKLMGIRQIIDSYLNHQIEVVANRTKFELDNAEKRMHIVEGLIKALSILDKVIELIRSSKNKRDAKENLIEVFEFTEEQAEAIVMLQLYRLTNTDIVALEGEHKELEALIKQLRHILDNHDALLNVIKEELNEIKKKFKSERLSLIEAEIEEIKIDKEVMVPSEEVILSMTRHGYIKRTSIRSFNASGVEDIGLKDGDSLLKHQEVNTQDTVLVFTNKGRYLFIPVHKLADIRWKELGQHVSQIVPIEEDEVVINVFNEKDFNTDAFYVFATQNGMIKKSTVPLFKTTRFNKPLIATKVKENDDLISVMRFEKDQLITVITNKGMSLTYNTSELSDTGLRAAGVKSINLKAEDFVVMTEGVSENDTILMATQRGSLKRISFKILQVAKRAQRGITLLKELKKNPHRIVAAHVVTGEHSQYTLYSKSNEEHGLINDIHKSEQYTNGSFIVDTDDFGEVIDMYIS
Topoisomerase IV, sequence (P0C1S7 whole entry): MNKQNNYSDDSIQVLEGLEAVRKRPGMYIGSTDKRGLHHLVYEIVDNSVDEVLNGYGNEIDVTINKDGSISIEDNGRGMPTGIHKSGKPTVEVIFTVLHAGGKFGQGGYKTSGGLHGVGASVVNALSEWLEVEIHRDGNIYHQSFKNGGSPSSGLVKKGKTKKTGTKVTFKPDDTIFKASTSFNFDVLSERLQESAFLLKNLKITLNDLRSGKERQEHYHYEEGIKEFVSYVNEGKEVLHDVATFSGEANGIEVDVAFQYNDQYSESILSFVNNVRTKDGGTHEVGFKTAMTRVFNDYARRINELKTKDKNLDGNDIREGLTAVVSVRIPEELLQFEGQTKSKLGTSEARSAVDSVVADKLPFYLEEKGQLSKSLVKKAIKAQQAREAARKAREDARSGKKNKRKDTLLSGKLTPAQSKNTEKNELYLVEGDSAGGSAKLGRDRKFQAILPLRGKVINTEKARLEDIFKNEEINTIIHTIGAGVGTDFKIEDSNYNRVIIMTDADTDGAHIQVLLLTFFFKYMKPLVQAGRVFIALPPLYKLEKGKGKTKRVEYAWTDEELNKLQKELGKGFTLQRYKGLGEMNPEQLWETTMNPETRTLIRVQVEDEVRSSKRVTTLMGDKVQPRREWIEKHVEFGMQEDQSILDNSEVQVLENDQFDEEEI
DNA gyrase (Staphylococcus aureus, UniProt P0A0K8+P20831), sequence (P0A0K8 whole entry): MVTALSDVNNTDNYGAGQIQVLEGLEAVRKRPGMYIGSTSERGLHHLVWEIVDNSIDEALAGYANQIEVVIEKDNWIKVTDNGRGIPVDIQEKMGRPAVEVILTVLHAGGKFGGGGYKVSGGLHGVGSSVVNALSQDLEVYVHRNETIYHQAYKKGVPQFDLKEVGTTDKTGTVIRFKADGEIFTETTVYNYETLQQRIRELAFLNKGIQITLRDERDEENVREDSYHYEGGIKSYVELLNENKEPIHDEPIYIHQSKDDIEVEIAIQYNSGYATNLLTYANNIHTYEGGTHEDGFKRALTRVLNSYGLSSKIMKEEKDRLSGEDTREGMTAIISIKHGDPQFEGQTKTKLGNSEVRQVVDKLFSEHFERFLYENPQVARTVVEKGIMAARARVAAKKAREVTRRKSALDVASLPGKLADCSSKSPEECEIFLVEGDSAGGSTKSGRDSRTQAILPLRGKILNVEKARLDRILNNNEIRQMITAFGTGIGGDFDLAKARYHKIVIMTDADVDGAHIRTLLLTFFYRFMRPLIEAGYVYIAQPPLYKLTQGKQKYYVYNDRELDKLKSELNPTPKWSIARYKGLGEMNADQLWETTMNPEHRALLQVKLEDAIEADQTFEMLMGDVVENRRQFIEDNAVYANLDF
DNA gyrase (Staphylococcus aureus, UniProt P0A0K8+P20831), sequence (P20831 whole entry): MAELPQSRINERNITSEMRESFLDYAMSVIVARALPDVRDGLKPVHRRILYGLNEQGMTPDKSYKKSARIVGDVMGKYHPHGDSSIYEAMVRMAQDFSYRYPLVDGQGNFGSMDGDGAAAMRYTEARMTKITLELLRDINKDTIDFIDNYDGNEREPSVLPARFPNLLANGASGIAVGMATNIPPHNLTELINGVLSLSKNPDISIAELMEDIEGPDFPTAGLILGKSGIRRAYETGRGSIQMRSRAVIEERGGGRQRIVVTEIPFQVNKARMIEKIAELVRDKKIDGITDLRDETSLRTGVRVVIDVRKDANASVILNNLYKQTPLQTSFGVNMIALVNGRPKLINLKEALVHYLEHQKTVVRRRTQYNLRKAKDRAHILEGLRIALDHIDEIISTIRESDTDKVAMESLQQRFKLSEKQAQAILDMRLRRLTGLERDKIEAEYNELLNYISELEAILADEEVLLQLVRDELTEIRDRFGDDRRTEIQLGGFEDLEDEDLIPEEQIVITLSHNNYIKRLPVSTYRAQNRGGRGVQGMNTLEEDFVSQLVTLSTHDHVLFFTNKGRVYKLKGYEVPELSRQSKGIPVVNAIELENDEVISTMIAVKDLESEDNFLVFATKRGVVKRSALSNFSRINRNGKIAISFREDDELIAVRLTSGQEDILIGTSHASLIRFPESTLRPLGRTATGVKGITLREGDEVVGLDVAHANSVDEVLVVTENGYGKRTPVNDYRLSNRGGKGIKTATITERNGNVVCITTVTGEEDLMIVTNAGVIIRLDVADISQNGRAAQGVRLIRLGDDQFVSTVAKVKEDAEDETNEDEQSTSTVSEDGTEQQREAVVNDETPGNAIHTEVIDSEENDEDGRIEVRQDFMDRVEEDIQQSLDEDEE
DNA gyrase (Staphylococcus aureus), sequence (P0A0K8 2-644 limits assumed): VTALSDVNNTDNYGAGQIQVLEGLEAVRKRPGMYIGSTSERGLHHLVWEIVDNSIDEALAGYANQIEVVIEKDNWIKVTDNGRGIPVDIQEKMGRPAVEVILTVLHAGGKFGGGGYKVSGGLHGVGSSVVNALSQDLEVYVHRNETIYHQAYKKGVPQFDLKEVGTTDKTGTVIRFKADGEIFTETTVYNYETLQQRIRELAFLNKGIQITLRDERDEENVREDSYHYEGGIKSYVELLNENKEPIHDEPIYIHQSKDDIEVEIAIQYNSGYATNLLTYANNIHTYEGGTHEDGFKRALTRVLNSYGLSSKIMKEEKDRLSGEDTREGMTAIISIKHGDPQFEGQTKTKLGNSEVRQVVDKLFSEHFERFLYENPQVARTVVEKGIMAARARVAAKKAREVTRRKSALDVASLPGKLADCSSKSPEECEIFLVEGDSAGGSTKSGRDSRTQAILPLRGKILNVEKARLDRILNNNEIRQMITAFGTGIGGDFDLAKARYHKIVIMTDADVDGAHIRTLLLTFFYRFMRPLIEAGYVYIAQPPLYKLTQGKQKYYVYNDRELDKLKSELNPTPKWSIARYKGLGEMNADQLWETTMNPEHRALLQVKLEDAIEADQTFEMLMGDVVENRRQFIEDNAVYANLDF
DNA gyrase (Staphylococcus aureus), sequence (P20831 whole entry partner): as the sequence (P20831 whole entry) above

Structure (SMILES)	inhibition at 50 µM (Klebsiella aerogenes) [%]	inhibition at 50 µM (Staphylococcus aureus) [%]	inhibition at 50 µM (Escherichia coli [1]) [%]	inhibition at 50 µM (Enterococcus faecium [2]) [%]	inhibition at 50 µM (Klebsiella pneumoniae) [%]	IC50 (DNA gyrase [4]) [nM]	inhibition at 50 µM (Escherichia coli [5]) [%]	inhibition at 50 µM (Acinetobacter baumannii) [%]	inhibition at 50 µM (Escherichia coli [6]) [%]	inhibition at 50 µM (Enterococcus faecalis [7]) [%]	inhibition at 50 µM (Pseudomonas aeruginosa) [%]	IC50 [12] [nM]	IC50 (Topoisomerase IV) [nM]	IC50 (DNA gyrase [14]) [nM]	further results
Cc1[nH]c(C(=O)Nc2ccc3[nH]c(C(=O)O)cc3c2)c(Cl)c1Cl	6	6	99	20	-2	98	2	3	2	54	-2	–	–	–	MIC (Escherichia coli [3]): 12.5 µM (≈ 4.4 µg/mL)
CCOC(=O)c1cn(CC)c2cc(NC(=O)c3[nH]c(C)c(Cl)c3Cl)ccc2c1=O	5	-3	11	37	9	53	-2	3	12	-7	-3	–	–	–	inhibition at 72 h, 50 µM [8]: 88%; inhibition at 72 h, 50 µM [9]: 90%
Cc1[nH]c(C(=O)Nc2ccc(C(=O)N[C@H](C)C(=O)NN)cc2OC(C)C)c(Cl)c1Cl	16	46	38	49	14	–	31	25	21	85	-2	–	–	–	Activity [10]: 89%; MIC (Enterococcus faecalis [11]): 12.5 µM (≈ 5.7 µg/mL)
Cc1[nH]c(C(=O)Nc2ccc(C(=O)N[C@H](C)C(=O)O)cc2OC2CCNCC2)c(Cl)c1Cl	-3	-1	35	3	5	6.9	14	5	1	–	-3	15000	960	–	Activity [13]: 31%
Cc1[nH]c(C(=O)Nc2ccc(C(=O)NCC(=O)O)cc2OC2CCN(C(=O)OC(C)(C)C)CC2)c(Cl)c1Cl	-8	-10	-5	-1	-9	86	-2	-12	9	–	-3	10000	7400	1010	–
COC(=O)CNC(=O)c1ccc(NC(=O)c2[nH]c(C)c(Cl)c2Cl)c(O[C@H]2CCNC2)c1	-3	5	88	13	-5	74	26	2	4	–	4	–	–	950	Activity [15]: 94%; MIC (Escherichia coli [3]): 25 µM (≈ 11.7 µg/mL); Activity [16]: 90%
COC(=O)[C@H](C)NC(=O)c1ccc(NC(=O)c2[nH]c(C)c(Cl)c2Cl)c(OC2CCN(C(=O)OC(C)(C)C)CC2)c1	14	35	61	73	3	–	43	23	18	–	27	–	–	–	Activity [10]: 83%; MIC (Enterococcus faecium [17]): > 25 µM
Cc1[nH]c(C(=O)Nc2ccc(C(=O)NCC(=O)O)cc2OC2CCNCC2)c(Cl)c1Cl	4	3	37	-1	5	17	9	1	-2	–	15	7200	3700	960	–
